{"source": "patent US7659104B2", "about": "“Solvent tolerant microorganisms and methods of isolation” (E.I. du Pont de Nemours and Company, priority 2006, dated 2010)", "key": {"[1]": {"tested_on": "PN0110 (Enterococcus faecium)", "settings": "37° C.", "description": "(§1) Pure strains of 1-butanol resistant bacteria were isolated from the enrichment cultures as follows. The cells grown in an enrichment culture containing 1.2% or 1.6% 1-butanol were serially diluted, and the serial dilutions were plated on Luria Bertani (LB) agar medium, modified LB agar (i.e., LB agar supplemented with 0.5% sucrose, 0.5% glucose, 0.5% fructose, 0.5% sodium pyruvate, 2 mM MgCl2, 0.7 mM CaCl2, 50 μM MnCl2, 1 μM FeCl3, 1 μM ZnCl2, 1.72 μM CuCl2, 2.53 μM CoCl2, 2.42 μM Na2MoO4 and 2 μM thiamine hydrochloride) or minimal enrichment medium with 2.0% Difco™ Agar Noble, (BD Diagnostic Systems, Sparks, Md.), all without 1-butanol. Colonies were then inoculated from the agar medium into minimal enrichment medium (described above) without 1-butanol in the wells of a microtiter plate. […] The growth was monitored (by OD600) of isolates cultured in S30L medium (i.e., 10 mM ammonium sulfate, 5 mM potassium phosphate buffer, pH 7.0, 50 mM MOPS, pH 7.0, 2 mM MgCl2, 0.7 mM CaCl2, 50 μM MnCl2, 1 μM FeCl3, 1 μM ZnCl2, 1.72 μM CuCl2, 2.53 μM CoCl2, 2.42 μM Na2MoO4, 2 μM thiamine hydrochloride, 0.01 M glucose, and 0.2% yeast extract) at 37° C. in the absence (control) and in the presence of from 1.2% to 3.0% w/v of 1-butanol and the doubling time for each culture was calculated from the logarithmic part of the growth curve (doubling time=0.693/growth rate)."}, "[2]": {"tested_on": "isolates from the enrichments", "settings": "37° C., microtiter plate", "description": "as §1"}, "[3]": {"tested_on": "isolates listed in Table 5 (PN0048, PN0197-10, PN0133)", "test": "Growth on solid medium (S20 agar replica plating), isolates listed in Table 5", "format": "cell-based, Enterococcus", "settings": "37° C., 24 to 72 h", "description": "Phylogenetic characterization of the microbial consortium in the anaerobic bioreactor and isolation of pure strains of 1-butanol resistant bacteria from this bioreactor were performed as follows. Samples of cells taken from the bioreactor at various times and from the bioreactor waste jug were serially diluted, and the serial dilutions were plated on S20 agar medium (S20 medium with 1.6% DifCo™ Agar, Noble-Solidifying agent) without 1-butanol. Colonies were then inoculated from the S20 agar medium into 1.2 mL of S20 medium without 1-butanol in the wells of a square-well microtiter plate (Beckman Coulter Inc, Fullerton, Calif.; Catalog No. 069681). […] Butanol tolerance was determined by growth in the presence of 1-butanol as determined by measuring increases in optical density at 595 nm (OD595) on a microtiter plate reader (HTS 7000 Plus Bio Assay Reader, PerkinElmer Life and Analytical Sciences Inc., Wellesley, Mass.). Isolates that had OD595 readings in the range of 0.1 to 0.8 after growth for 48 h at 37° C. with shaking were selected for further tolerance testing. […] The IC50 values of the isolated strains were determined at 37° C., for 1-butanol, 2-butanol, isobutanol, 2-butanone (also called methyl ethyl ketone (MEK)) and ethanol, following the method described in Example 1."}, "[4]": {"tested_on": "enrichment cultures from environmental sludge samples", "settings": "37° C.", "description": "Environmental sludge samples were obtained from wastewater treatment facilities at several E.I. du Pont de Nemours and Company sites. Enrichment cultures were established for each sample by inoculating a 125-mL screw cap Erlenmeyer flask with 1 mL of a sludge sample in 10 mL of minimal enrichment medium (i.e., 10 mM ammonium sulfate, 50 mM potassium phosphate buffer, pH 7.0, 2 mM MgCl2, 0.7 mM CaCl2, 50 μM MnCl2, 1 μM FeCl3, 1 μM ZnCl2, 1.72 μM CuCl2, 2.53 μM CoCl2, 2.42 μM Na2MoO4, 2 μM thiamine hydrochloride, 0.5% glucose, 0.5% fructose, 0.5% sucrose and 0.1% yeast extract). The enrichment cultures were incubated at 37° C. with shaking. After 24 h of incubation, the enrichment cultures were diluted 1:10 into fresh medium that contained 0.8%, 1.2% or 1.6% w/v 1-butanol (Sigma Chemical Co.; molecular biology grade (greater than or equal to 99% purity)). Incubation continued under the same conditions. Cultures with the highest level of 1-butanol allowing significant growth (e.g., a culture with an initial OD600 of approximately 0.1 that increased within 24 to 48 h to an OD600 of approximately 1.0) were then diluted 1:10 into fresh medium that contained higher levels of 1-butanol to select for increased tolerance to 1-butanol."}, "[5]": {"tested_on": "most microorganisms described in the art", "settings": "liquid medium; 37° C.; cited from earlier work"}, "[6]": {"tested_on": "Lactococcus lactis overexpressing GroESL", "settings": "Desmond et al.; equals 0.4% w/v; cited from earlier work"}, "[7]": {"tested_on": "Lactobacillus paracasei overexpressing GroESL", "settings": "Desmond et al.; equals 0.4% w/v; cited from earlier work"}, "[8]": {"settings": "liquid minimal enrichment medium, shaking"}}}
{"smiles": "CCCCO", "note": "[1-butanol]", "values": [{"measurement": "concentration in solid medium on which the strain was able to grow", "setting": "[1]", "value": 2.5, "unit": "% w/v"}, {"measurement": "concentration in liquid medium at which several isolates displayed growth", "setting": "[2]", "value": "at least 2.0%"}, {"measurement": "concentration on solid medium at which isolates displayed growth", "setting": "[3]", "value": "≥ 2.5", "unit": "%"}, {"measurement": "concentration in whose presence none of the enrichment cultures grew", "setting": "[4]; liquid medium", "value": 2.0, "unit": "%"}, {"measurement": "concentration in whose presence enrichment cultures from some sites grew", "setting": "[4]; [8]", "value": 1.6, "unit": "%"}, {"measurement": "concentration in whose presence most of the enrichment cultures grew", "setting": "[4]; [8]", "value": 1.2, "unit": "%"}, {"measurement": "concentration at which growth is totally inhibited", "setting": "[5]", "value": "less than 2.0 % w/v"}, {"measurement": "concentration in whose presence strains were able to grow", "setting": "[6]", "value": "0.5 % volume/volume (v/v)"}, {"measurement": "concentration in whose presence strains were able to grow", "setting": "[7]", "value": "0.5 % volume/volume (v/v)"}]}
